The target in assay [1] is T1, ERβ (Homo sapiens, UniProt Q92731). Briefly: cell-based. It counts as cell-based.
The subject of assay [2] is GREB1. The assay can be described thus: GREB1 smRNA FISH. As to conditions: MCF-7, 24 h; E2 1nM, IBV 10 and 100nM, PHX 100nM. It counts as cell-based.
Assay [3] concerns GREB1. The assay can be described thus: GREB1 mRNA expression by qPCR in MCF-7. It counts as cell-based. The note with it: MCF-7, 24 h; for GREB1 transcription (qPCR) compared to DMSO: E2 1nM, IBV 10nM, PHX, genistein, ±equol 100nM, neobavaisoflavone, bavachin, isobavachalcone, daidzein 1μM.
For assay [4], the system named is MCF-7 cells. Briefly: MCF-7 proliferation assay. The note with it: 120 h; for increase in cell number of MCF-7 cells: compared with DMSO. It counts as cell-based.
Assay [5] relates to ERE-GFP reporter in the liver. Briefly: Transgenic zebrafish ERE-GFP reporter, liver. It counts as in vivo. The note with it: for ER signal (ERE-GFP) in the liver: highest nonlethal doses tested; for ERE-GFP activation in the zebrafish (liver or heart): nonlethal doses tested (<100μM).
Assay [6] deals with ERE-GFP in the heart valves. The assay can be described thus: Transgenic zebrafish ERE-GFP reporter, heart valves. Format: in vivo. The note with it: highest nonlethal doses tested.
Assay [7] relates to ERα or ERβ. Format: cell-based. As to conditions: flavonoid screen, cell line not stated.
Assay [8] concerns the target T2, ERα (Homo sapiens, UniProt P03372).
T2 sequence (P03372 1-595): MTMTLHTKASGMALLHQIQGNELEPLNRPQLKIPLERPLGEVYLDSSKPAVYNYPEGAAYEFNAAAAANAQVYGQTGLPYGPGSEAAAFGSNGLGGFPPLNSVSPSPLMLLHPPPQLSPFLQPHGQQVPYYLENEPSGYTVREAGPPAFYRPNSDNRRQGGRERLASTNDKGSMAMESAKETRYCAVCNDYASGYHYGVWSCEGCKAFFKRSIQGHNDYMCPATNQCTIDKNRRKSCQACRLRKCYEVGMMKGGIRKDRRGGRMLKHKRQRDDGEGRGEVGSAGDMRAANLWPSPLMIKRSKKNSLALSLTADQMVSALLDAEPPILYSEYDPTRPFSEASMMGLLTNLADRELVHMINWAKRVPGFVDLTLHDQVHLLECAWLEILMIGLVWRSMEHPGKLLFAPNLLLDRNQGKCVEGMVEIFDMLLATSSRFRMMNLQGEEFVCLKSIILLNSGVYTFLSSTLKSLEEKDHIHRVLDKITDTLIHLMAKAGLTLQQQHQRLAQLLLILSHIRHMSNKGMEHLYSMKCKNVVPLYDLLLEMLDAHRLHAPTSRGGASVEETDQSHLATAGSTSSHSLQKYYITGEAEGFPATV
Briefly: cell-based. As to conditions: for selectivity for either estrogen receptor: ERα vs ERβ array EC50; for ERα DNA binding and transcription at the 100nM dose / PRL-ERα EC50 (nM) / EC50: ERα-GFP:PRL-HeLa; for PRL-ERα EC50 (nM) / EC50: array formation (DNA binding), 1 h. Format: cell-based.

In assay [9] the target is T2, ERα. The assay can be described thus: dsRed2 reporter RNA FISH in ERα-GFP:PRL-HeLa. Format: cell-based.
In assay [10] the target is T3, progesterone receptor (GFP-PR) (Homo sapiens, UniProt P06401).
T3 sequence (P06401 679-933 limits assumed): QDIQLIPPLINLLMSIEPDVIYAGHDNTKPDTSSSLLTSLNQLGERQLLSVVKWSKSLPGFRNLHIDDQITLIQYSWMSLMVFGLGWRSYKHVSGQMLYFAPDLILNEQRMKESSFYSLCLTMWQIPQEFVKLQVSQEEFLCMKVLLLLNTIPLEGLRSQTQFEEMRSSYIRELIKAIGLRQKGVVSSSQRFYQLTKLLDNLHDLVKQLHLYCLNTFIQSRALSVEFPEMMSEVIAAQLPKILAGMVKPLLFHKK
Briefly: GFP-PR PRL array biosensor cell line, array formation. The note with it: 100nM. Format: cell-based.

Assay [11] concerns ERα. The note with it: read-out: EC50 for displacement of E2 from ERα in rat uteri; cited from earlier work.
Assay [12] addresses T1, ERβ. Briefly: dsRed2 reporter RNA FISH in GFP-ERβ:PRL-HeLa. It counts as cell-based. The note with it: highest dose tested (10μM).
The mark [13] stands for this setting: array formation (DNA binding), GFP-ERβ:PRL-HeLa, 1 h.
Setting [14] is: read-out: PRL-ERβ EC50, array formation (DNA binding), GFP-ERβ:PRL-HeLa, 1 h.

Entries after “also recorded” stand apart in the source; their conditions may differ. Where two headings read alike, the source gives them in different places. Bounds are passed on as bounds.

T1 sequence (Q92731 whole entry): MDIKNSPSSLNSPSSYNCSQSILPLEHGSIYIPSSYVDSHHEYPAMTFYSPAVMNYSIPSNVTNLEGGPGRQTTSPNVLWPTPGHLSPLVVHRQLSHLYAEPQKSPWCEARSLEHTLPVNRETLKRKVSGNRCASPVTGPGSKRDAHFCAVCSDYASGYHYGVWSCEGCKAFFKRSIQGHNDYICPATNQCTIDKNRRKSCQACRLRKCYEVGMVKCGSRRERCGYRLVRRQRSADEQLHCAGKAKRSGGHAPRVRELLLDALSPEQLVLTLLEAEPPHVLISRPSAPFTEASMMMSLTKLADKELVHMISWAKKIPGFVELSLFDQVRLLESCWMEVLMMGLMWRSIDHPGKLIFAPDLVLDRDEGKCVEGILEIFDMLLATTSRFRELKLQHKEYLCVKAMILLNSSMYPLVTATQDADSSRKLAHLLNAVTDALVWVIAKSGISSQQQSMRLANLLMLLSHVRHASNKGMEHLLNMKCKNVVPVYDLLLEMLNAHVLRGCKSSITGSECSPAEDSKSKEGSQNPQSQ

Take `C[C@]12CC[C@@H]3c4ccc(O)cc4CC[C@H]3[C@@H]1CC[C@@H]2O` [E2, 17β-estradiol, reference compound]: the “fraction of cells with a visible array” value in [1] came to 75%. Besides, in [2], the “induction of transcriptionally active GREB1 alleles” value is on record as “significant induction”. Also, the “GREB1 transcription (qPCR) compared to DMSO” value in assay [3] is reported as “activation of GREB1 transcription”. For the same compound, in assay [4], the “increase in cell number of MCF-7 cells” value turned out to be 150%. The “ER signal (ERE-GFP) in the liver” value in assay [5] is “activate ER signal”. Moreover, the “ER signal (ERE-GFP) in the heart” value in assay [6] is given as “activate ER signal”.

Turning to `CN1CC[C@H](c2c(O)cc(O)c3c(=O)cc(-c4ccccc4Cl)oc23)[C@H](O)C1` [Flavopiridol (Alvocidib), Flavopiridol, reference compound], the “transcriptional output (dsRed2 FISH) versus DMSO” value in [7] is recorded as “suppressed transcriptional output to a lower level than DMSO”.

For the compound `CC(C)=CCc1cc2c(cc1O)O[C@H](c1ccc(O)cc1)CC2=O` [Bavachin], the “selectivity for either estrogen receptor” value in assay [8] is more than 5 fold. For the same compound, in assay [3], the “GREB1 transcription (qPCR) compared to DMSO” value is listed as “activation of GREB1 transcription”.

For the compound `Oc1ccc([C@H]2COc3cc(O)ccc3C2)cc1` [S-Equol], the “ERα DNA binding and transcription at the 100nM dose” value (“ERα DNA binding and transcription” below) in [8] is “induced ERα DNA binding and transcription”. Also, in [1] (100nM), the “activity in GFP-ERβ:PRL-HeLa cells at the 100nM dose” value (“activity in GFP-ERβ:PRL-HeLa cells” for short) is on record as “also active”.

With `COc1ccc(CCC(=O)c2ccc(O)cc2)c(OC)c1` [Loureirin A], the “PRL-ERα EC50 (nM)” value in assay [8] is “sub-micromolar”. The 50% effective concentration (EC50) in assay [8] (read-out: PRL-ERα EC50) was 50 nM. Moreover, in assay [1] (setting [13]), the “PRL-ERβ EC50 (nM)” value is “sub-micromolar”. Moreover, in assay [1] (setting [14]), the concentration giving a half-maximal response (EC50) was determined as 76.2 nM. Besides, in assay [4], the “EC50 in MCF-7 growth assay” value is “sub-micromolar”; the “MCF-7 cell proliferation, reaching the level of E2” value is “not able to reach the level of E2”; the “increase in cell number of MCF-7 cells” value was 50%. In assay [5], the “ERE-GFP activation in the zebrafish (liver or heart)” value is recorded as “Neither isosakuranetin, echinatin, nor loureirin A activated the ERE-GFP”.

As for `CC(C)=CCc1c(O)ccc2c1O[C@H](c1ccc(O)cc1)CC2=O` [Isobavachin], the “ERα DNA binding and transcription” value in assay [8] is “induced ERα DNA binding and transcription”. Also, the EC50 in [8] (PRL-ERα EC50 (nM)) was determined as 1.28 nM. For the same compound, in [1] (100nM), the “activity in GFP-ERβ:PRL-HeLa cells” value was “also active”.

`O=c1c(-c2ccc(O)cc2)coc2cc(O)ccc12` [Daidzein]: the “GREB1 transcription (qPCR) compared to DMSO” value in assay [3] is on record as “activation of GREB1 transcription”.

Take `CN1CC[C@H](c2c(O)cc(O)c3c(=O)cc(-c4ccccc4Cl)oc23)[C@H](O)C1.Cl` [Flavopiridol HCl, reference compound]: in assay [7], the “transcriptional output (dsRed2 FISH) versus DMSO” value is reported as “suppressed transcriptional output to a lower level than DMSO”.

Take `CN1CCC(c2c(O)cc(O)c3c(=O)cc(-c4ccccc4Cl)oc23)C1CO` (stereo not shown) [P276-00]: in assay [7], the “transcriptional output (dsRed2 FISH) versus DMSO” value was “suppressed transcriptional output to a lower level than DMSO; also recorded: suppressed transcription”. In [9] (10μM, 1 h, hits in ERα-GFP:PRL-HeLa), the “gene transcription (dsRed2 RNA FISH) compared to DMSO” value is “suppress gene transcription”.

As for `COc1cc(-c2coc3cc(O)c(OC)c(O)c3c2=O)cc(O)c1OC` [Irigenin], the “transcriptional output (dsRed2 FISH) versus DMSO” value in assay [7] is “suppressed transcription”.

For `CC(C)=CCc1cc(-c2coc3cc(O)ccc3c2=O)ccc1O` [Neobavaisoflavone], the “selectivity for either estrogen receptor” value in assay [8] is on record as more than 5 fold. Besides, in assay [3], the “GREB1 transcription (qPCR) compared to DMSO” value is reported as “activation of GREB1 transcription”.

Consider `COc1cc(O)ccc1/C=C/C(=O)c1ccc(O)cc1` [Echinatin], for which the EC50 in assay [8] (PRL-ERα EC50 (nM)) was determined as 174 nM; in assay [1], 69.5 nM. Moreover, in assay [8], the “PRL-ERα EC50 (nM)” value is “sub-micromolar”. In assay [1] (setting [13]), the “PRL-ERβ EC50 (nM)” value was “sub-micromolar”. Also, the “GREB1 gene expression compared to DMSO and E2” value in assay [3] (compounds 1μM, E2 10nM) is on record as “induced expression to the same level as E2”. Also, the “EC50 in MCF-7 growth assay” value in [4] was “sub-micromolar”. Moreover, the “ERE-GFP activation in the zebrafish (liver or heart)” value in assay [5] was “Neither isosakuranetin, echinatin, nor loureirin A activated the ERE-GFP”.

Regarding `CC(=O)[C@H]1CC[C@H]2[C@@H]3CCC4=CC(=O)CC[C@]4(C)[C@H]3CC[C@]12C` [P4, progesterone], in [10], the “array formation in GFP-PR cell line (controls)” value is listed as “successfully induced array formation”.

`CC(C)=CCc1c(O)ccc(C(=O)/C=C/c2ccc(O)cc2)c1O` [Isobavachalcone]: in [8], the “selectivity for either estrogen receptor” value is reported as more than 5 fold. The “GREB1 transcription (qPCR) compared to DMSO” value in [3] was “activation of GREB1 transcription”.

Consider `COc1ccc(-c2cc(=O)c3c(O)cc(O[C@@H]4O[C@H](CO)[C@@H](O)[C@H](O)[C@H]4O[C@@H]4O[C@@H](C)[C@H](O)[C@@H](O)[C@H]4O)cc3o2)cc1O` [Neodiosmin], for which the “ERα DNA binding and transcription” value in assay [8] was “induced ERα DNA binding and transcription”.

On to `Oc1ccc(C2=Cc3ccc(O)cc3OC2)cc1` [Phenoxodiol (Haginin E), Phenoxodiol], for which, in assay [1], the “activity in GFP-ERβ:PRL-HeLa cells” value was “also active”. The “GREB1 transcription (qPCR) compared to DMSO” value in assay [3] is “activation of GREB1 transcription”. Further, the “ER signal (ERE-GFP) in the liver” value in assay [5] is “activate ER signal”. Also, in [6], the “ER signal (ERE-GFP) in the heart” value was “activate ER signal”. The EC50 in [11] is approximately 500 nM.

As to `C=CC(C)(C)c1cc(/C=C/C(=O)c2ccc(O)cc2)c(OC)cc1O` [Licochalcone A], the EC50 is 508 nM in assay [8] (read-out: PRL-ERα EC50) and 92.1 nM in assay [1] (setting [14]). Besides, in assay [1] (array EC50), the “preference for ERβ compared to ERα” value was 5 fold. The “RNA FISH expression in ERα-GFP:PRL-HeLa” value in assay [9] (highest dose tested (10μM)) is “did not activate RNA FISH expression”. Besides, the “dsRed2 reporter gene activation in GFP-ERβ:PRL-HeLa” value in [12] is on record as “did activate the dsRed2 reporter gene”.

As for `O=c1c(-c2ccc(O)cc2)coc2cc(O)cc(O)c12` [Genistein], the “GREB1 transcription (qPCR) compared to DMSO” value in [3] was “activation of GREB1 transcription”.

Regarding `CCC(=O)[C@@]1(C)CC[C@H]2[C@@H]3CCC4=CC(=O)CCC4=C3CC[C@@]21C` [R5020], in [10], the “array formation in GFP-PR cell line (controls)” value is reported as “successfully induced array formation”.

As usually defined, the EC50 is the concentration needed to bring the measured effect to its halfway point.

The record behind these values is PMC10926205 (iScience, 2024).
